Patent US12612409B2, “Pyrrolopyrimidines as CFTR potentiators” (Cystic Fibrosis Foundation, priority 2016, dated 2026)
pEC50: −log10 of the molar value.

Assays:
[1] = target: T1, recombinant F508del V470 CFTR in Fischer rat thyroid (FRT) cells (Homo sapiens, UniProt P13569, DEL508-508); assay: FRT ion flux assay of F508del CFTR potentiation; assay type: cell-based; details: FRT cells expressing F508del V470 CFTR, forskolin 20 uM, 27° C. pre-incubation
T1 construct: expressed in transfected cells
T1 sequence (P13569 with tags, fused parts or gaps DEL508-508): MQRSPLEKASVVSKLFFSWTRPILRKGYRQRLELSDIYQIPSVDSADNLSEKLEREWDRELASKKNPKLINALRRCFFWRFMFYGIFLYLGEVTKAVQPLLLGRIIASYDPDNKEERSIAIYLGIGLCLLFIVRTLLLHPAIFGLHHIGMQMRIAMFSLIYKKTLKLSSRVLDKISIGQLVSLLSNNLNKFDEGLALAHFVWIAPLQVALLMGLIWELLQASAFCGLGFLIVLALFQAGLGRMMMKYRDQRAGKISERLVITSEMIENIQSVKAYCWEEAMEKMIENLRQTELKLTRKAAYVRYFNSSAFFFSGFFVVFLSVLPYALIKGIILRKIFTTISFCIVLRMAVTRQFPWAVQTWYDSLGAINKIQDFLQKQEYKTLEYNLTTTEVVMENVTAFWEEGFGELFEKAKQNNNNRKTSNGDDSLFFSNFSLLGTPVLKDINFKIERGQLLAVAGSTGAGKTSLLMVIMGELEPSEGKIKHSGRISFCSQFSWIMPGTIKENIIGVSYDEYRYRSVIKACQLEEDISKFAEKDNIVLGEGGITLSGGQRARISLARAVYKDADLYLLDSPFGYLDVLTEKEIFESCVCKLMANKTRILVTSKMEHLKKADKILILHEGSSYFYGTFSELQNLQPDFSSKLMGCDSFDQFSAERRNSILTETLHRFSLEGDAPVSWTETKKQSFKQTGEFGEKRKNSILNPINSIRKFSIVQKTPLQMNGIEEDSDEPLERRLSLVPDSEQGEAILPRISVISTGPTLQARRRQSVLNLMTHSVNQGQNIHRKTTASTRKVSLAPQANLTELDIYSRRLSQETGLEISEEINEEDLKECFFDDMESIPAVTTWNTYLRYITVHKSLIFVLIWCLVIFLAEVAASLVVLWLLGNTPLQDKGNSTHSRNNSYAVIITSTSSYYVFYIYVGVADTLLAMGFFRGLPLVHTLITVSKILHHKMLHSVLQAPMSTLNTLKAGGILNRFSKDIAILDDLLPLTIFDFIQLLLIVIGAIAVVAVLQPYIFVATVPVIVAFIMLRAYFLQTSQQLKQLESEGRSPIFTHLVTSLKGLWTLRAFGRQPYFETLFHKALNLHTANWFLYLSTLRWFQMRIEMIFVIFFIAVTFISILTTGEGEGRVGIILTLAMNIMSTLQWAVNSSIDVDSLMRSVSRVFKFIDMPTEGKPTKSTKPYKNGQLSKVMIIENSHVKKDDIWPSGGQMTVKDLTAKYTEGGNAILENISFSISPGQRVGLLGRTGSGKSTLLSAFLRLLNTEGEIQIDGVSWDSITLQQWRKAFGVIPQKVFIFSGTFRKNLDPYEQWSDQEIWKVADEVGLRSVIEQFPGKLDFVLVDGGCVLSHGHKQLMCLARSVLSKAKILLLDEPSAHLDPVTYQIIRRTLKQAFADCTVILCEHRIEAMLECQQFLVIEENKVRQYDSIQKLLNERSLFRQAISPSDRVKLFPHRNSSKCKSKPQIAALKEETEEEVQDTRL
In short: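 Potentiation read as YFP quench ~21 s after iodide buffer addition, as second/initial fluorescence ratio normalised between DMSO (0%) and reference potentiator (100%).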

[2] = target: T2, CFTR in F508del/F508del primary CF hBE cells (Homo sapiens, UniProt P13569, DEL508-508); assay: Ussing chamber electrophysiology assay of CFTR potentiation in F508del/F508del CF bronchial epithelial cells (27° C.); assay type: cell-based
T2 construct: Primary cystic fibrosis human bronchial epithelial (CF hBE) cells were expanded and cultured; endogenous in cells; host or cells: primary CF human bronchial epithelial cells, genotype F508del/F508del
T2 sequence (P13569 with tags, fused parts or gaps DEL508-508): as above
From the text: • SHELXTL, Version 5.1, Bruker AXS, 1997. • PLATON, A. L. Spek, J. Appl. Cryst. 2003, 36, 7-13. • MERCURY, C. F. Macrae, P. R. Edington, P. McCabe, E. Pidcock, G. P. Shields, R. Taylor, M. Towler and J. van de Streek, J. Appl. Cryst. 39, 453-457, 2006. • OLEX2, Dolomanov, O. V.; Bourhis, L. J.; Gildea, R. J.; Howard, J. A. K.; Puschmann, H., (2009). J. Appl. Cryst., 42, 339-341. • R. W. W. Hooft et al. J. Appl. Cryst. (2008). 41. 96-103. • H. D. Flack, Acta Cryst. 1983, A39, 867-881. Using Chamber Electrophysiology Assay of CFTR Potentiation in CF Bronchial Epithelial Cells
Primary cystic fibrosis human bronchial epithelial (CF hBE) cells were expanded and cultured according to published methods (Neuberger et al., Ch. 4 of Cystic Fibrosis, Methods in Molecular Biology vol. 741, pp. 39-54 (2011)). Well-differentiated cells (>30 days at air/liquid interface) on Snapwell filters (Corning Costar, cat. no. 3801) were mounted in Ussing chambers (Physiologic Instruments, Inc., San Diego, CA). […] HEPES buffered physiological saline (composition (in mM): 137 NaCl, 4 KCl, 1 MgCl2, 1.8 CaCl2), 10 HEPES Na) was used in both apical and basolateral chambers. Chambers were bubbled with air to promote mixing and the voltage was clamped to zero. Amiloride (30 uM), forskolin (10 uM), test compound (4 increasing concentrations), and CFTRinh-172 (20 uM) were added sequentially with 20-25 minutes between additions. Short-circuit currents were acquired and analyzed using LabScribe2. Test compound responses were scaled relative to responses for DMSO (0%) and the maximal response of a positive control potentiator (100%).

| Structure (SMILES) | pEC50 [1] | pEC50 [2] |
| --- | --- | --- |
| COc1ncc(-c2cn(C(C)c3cc(-c4ccccc4F)no3)c3ncnc(N)c23)cn1 (single isomer, unassigned; (-)) [Example 183, (−) 7-{1-[3-(2-fluorophenyl)-1,2-oxazol-5-yl]ethyl}-5-(2-methoxypyrimidin-5-yl)-7H-pyrrolo[2,3-d]pyrimidin-4-amine] | 6.29 | 6.52 |
| CC(c1cn(-c2ccc(F)cc2F)nn1)n1cc(-c2cnc(C(F)(F)F)nc2)c2c(N)ncnc21 (single isomer, unassigned; enantiomer 1) [Example 123, 7-{1-[1-(2,4-Difluorophenyl)-1H-1,2,3-triazol-4-yl]ethyl}-5-[2-(trifluoromethyl)pyrimidin-5-yl]-7H-pyrrolo[2,3-d]pyrimidin-4-amine, enantiomer 1] | 7.66 | 7.30 |
| CCC(c1cn(-c2ccccc2)nn1)n1cc(-c2cncnc2OC)c2c(N)ncnc21 (single isomer, unassigned; enantiomer 1) [Example 127, (−) 5-(4-Methoxypyrimidin-5-yl)-7-[1-(1-phenyl-1H-1,2,3-triazol-4-yl)propyl]-7H-pyrrolo[2,3-d]pyrimidin-4-amine, enantiomer 1] | 6.39 | 6.35 |
| CCC(c1cn(-c2ccccc2)nn1)n1cc(-c2cnc(C(F)(F)F)nc2)c2c(N)ncnc21 (single isomer, unassigned; enantiomer 1) [Example 129, 7-[1-(1-Phenyl-1H-1,2,3-triazol-4-yl)propyl]-5-[2-(trifluoromethyl)pyrimidin-5-yl]-7H-pyrrolo[2,3-d]pyrimidin-4-amine, enantiomer 1] | 8.07 | 7.97 |
| CCC(c1cn(-c2ccccc2F)nn1)n1cc(-c2cncnc2OC)c2c(N)ncnc21 (single isomer, unassigned; enantiomer 1) [Example 133, (−) 7-{1-[1-(2-Fluorophenyl)-1H-1,2,3-triazol-4-yl]propyl}-5-(4-methoxypyrimidin-5-yl)-7H-pyrrolo[2,3-d]pyrimidin-4-amine, enantiomer 1] | 6.04 | 6.14 |
| CCC(c1cn(-c2ccccc2F)nn1)n1cc(-c2nccnc2OC)c2c(N)ncnc21 (single isomer, unassigned; enantiomer 1) [Example 135, (−) 7-{1-[1-(2-Fluorophenyl)-1H-1,2,3-triazol-4-yl]propyl}-5-(3-methoxypyrazin-2-yl)-7H-pyrrolo[2,3-d]pyrimidin-4-amine, enantiomer 1] | 6.69 | 7.19 |
| CCC(c1cn(-c2ccccc2F)nn1)n1cc(-c2cc(F)cnc2OC)c2c(N)ncnc21 (single isomer, unassigned; enantiomer 1) [Example 139, (+) 5-(5-Fluoro-2-methoxypyridin-3-yl)-7-{1-[1-(2-fluorophenyl)-1H-1,2,3-triazol-4-yl]propyl}-7H-pyrrolo[2,3-d]pyrimidin-4-amine, enantiomer 1] | 8.24 | 8.52 |
| CCC(c1cn(-c2ccccc2F)nn1)n1cc(-c2cnc(C(F)F)nc2)c2c(N)ncnc21 (single isomer, unassigned; enantiomer 1) [Example 143, 5-[2-(Difluoromethyl)pyrimidin-5-yl]-7-{1-[1-(2-fluorophenyl)-1H-1,2,3-triazol-4-yl]propyl}-7H-pyrrolo[2,3-d]pyrimidin-4-amine, enantiomer 1] | 7.98 | 7.59 |
| CCC(c1cn(-c2ccc(F)cc2)nn1)n1cc(-c2cncnc2OC)c2c(N)ncnc21 (single isomer, unassigned; enantiomer 1) [Example 149, (+) 7-{1-[1-(4-Fluorophenyl)-1H-1,2,3-triazol-4-yl]propyl}-5-(4-methoxypyrimidin-5-yl)-7H-pyrrolo[2,3-d]pyrimidin-4-amine, enantiomer 1] | 7.54 | 7.34 |
| CCC(c1cn(-c2ccc(F)c(F)c2)nn1)n1cc(-c2cncnc2OC)c2c(N)ncnc21 (single isomer, unassigned; enantiomer 1) [Example 151, (+) 7-{1-[1-(3,4-Difluorophenyl)-1H-1,2,3-triazol-4-yl]propyl}-5-(4-methoxypyrimidin-5-yl)-7H-pyrrolo[2,3-d]pyrimidin-4-amine, enantiomer 1] | 7.47 | 7.45 |

Results, then the molecule that gave them:

| pEC50 [1] | pEC50 [2] | Structure (SMILES) |
| --- | --- | --- |
| 6.25 | 6.21 | CC(c1cn(-c2ccccc2F)nn1)n1cc(-c2ccc(C#N)c(F)c2)c2c(N)ncnc21 (single isomer, unassigned; enantiomer 1) [Example 115, 4-(4-Amino-7-{1-[1-(2-fluorophenyl)-1H-1,2,3-triazol-4-yl]ethyl}-7H-pyrrolo[2,3-d]pyrimidin-5-yl)-2-fluorobenzonitrile, enantiomer 1] |
| 7.23 | 7.31 | CC(c1cn(-c2ccccc2F)nn1)n1cc(-c2ccc(OC3CC3)cc2)c2c(N)ncnc21 (single isomer, unassigned; enantiomer 1) [Example 117, (+) 5-[4-(Cyclopropyloxy)phenyl]-7-{1-[1-(2-fluorophenyl)-1H-1,2,3-triazol-4-yl]ethyl}-7H-pyrrolo[2,3-d]pyrimidin-4-amine, enantiomer 1] |
| 6.17 | 6.73 | CC(c1cn(-c2ccccc2F)nn1)n1cc(-c2ccc(OC3CC3)nc2)c2c(N)ncnc21 (single isomer, unassigned; enantiomer 1) [Example 119, (−) 5-[6-(Cyclopropyloxy)pyridin-3-yl]-7-{1-[1-(2-fluorophenyl)-1H-1,2,3-triazol-4-yl]ethyl}-7H-pyrrolo[2,3-d]pyrimidin-4-amine, enantiomer 1] |
| 7.52 | 7.05 | CC(c1cn(-c2ccccc2F)nn1)n1cc(-c2cc[nH]n2)c2c(N)ncnc21 (single isomer, unassigned; enantiomer 1) [Example 121, 7-{1-[1-(2-Fluorophenyl)-1H-1,2,3-triazol-4-yl]ethyl}-5-(1H-pyrazol-3-yl)-7H-pyrrolo[2,3-d]pyrimidin-4-amine, enantiomer 1] |
| 6.40 | 6.70 | CCC(c1cn(-c2ccccc2)nn1)n1cc(-c2ccc(OC)nc2)c2c(N)ncnc21 (single isomer, unassigned; enantiomer 1) [Example 125, 5-(6-Methoxypyridin-3-yl)-7-[1-(1-phenyl-1H-1,2,3-triazol-4-yl)propyl]-7H-pyrrolo[2,3-d]pyrimidin-4-amine, enantiomer 1] |
| 6.21 | 6.55 | CCC(c1cn(-c2ccccc2F)nn1)n1cc(-c2ccc(Cl)cc2)c2c(N)ncnc21 (single isomer, unassigned; enantiomer 1) [Example 131, 5-(4-Chlorophenyl)-7-{1-[1-(2-fluorophenyl)-1H-1,2,3-triazol-4-yl]propyl}-7H-pyrrolo[2,3-d]pyrimidin-4-amine, enantiomer 1] |
| 8.23 | 7.99 | CCC(c1cn(-c2ccccc2F)nn1)n1cc(-c2cnc(C(F)(F)F)nc2)c2c(N)ncnc21 (single isomer, unassigned; enantiomer 1) [Example 137, 7-{1-[1-(2-Fluorophenyl)-1H-1,2,3-triazol-4-yl]propyl}-5-[2-(trifluoromethyl)pyrimidin-5-yl]-7H-pyrrolo[2,3-d]pyrimidin-4-amine, enantiomer 1] |
| 6.56 | 6.88 | CCC(c1cn(-c2ccccc2F)nn1)n1cc(-c2ccc(OC(F)F)nc2)c2c(N)ncnc21 (single isomer, unassigned; enantiomer 1) [Example 141, (−) 5-[6-(Difluoromethoxy)pyridin-3-yl]-7-{1-[1-(2-fluorophenyl)-1H-1,2,3-triazol-4-yl]propyl}-7H-pyrrolo[2,3-d]pyrimidin-4-amine, enantiomer 1] |
| 7.58 | 7.53 | CCC(c1cn(-c2ccccc2F)nn1)n1cc(-c2cnc(N(C)C)nc2)c2c(N)ncnc21 (single isomer, unassigned; enantiomer 1) [Example 145, 5-[2-(Dimethylamino)pyrimidin-5-yl]-7-{1-[1-(2-fluorophenyl)-1H-1,2,3-triazol-4-yl]propyl}-7H-pyrrolo[2,3-d]pyrimidin-4-amine, enantiomer 1] |
